Source: article PMC10858940, “Repositioning baloxavir marboxil as VISTA agonist that ameliorates experimental asthma” (Cell Biology and Toxicology, 2024)
pKd: −log10 of the molar value. Read-outs that look alike come from different tables or passages of the source.

How the values were obtained:
[1] = biological target: T1, VISTA (V-type immunoglobulin domain–containing suppressor of T-cell activation) (Homo sapiens, UniProt Q9H7M9); test: SPR (Biacore T200, human VISTA immobilized on CM5 chip); assay type: binding
T1 construct: gene VSIR; human VISTA-ECD protein
T1 sequence (Q9H7M9 33-194): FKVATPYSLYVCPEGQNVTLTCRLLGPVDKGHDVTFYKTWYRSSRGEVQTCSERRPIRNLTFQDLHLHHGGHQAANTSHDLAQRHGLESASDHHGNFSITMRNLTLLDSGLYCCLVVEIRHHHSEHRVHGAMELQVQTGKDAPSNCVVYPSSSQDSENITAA

[2] = biological target: T2, VISTA (V-type immunoglobulin domain–containing suppressor of T-cell activation) (Homo sapiens, UniProt Q9H7M9); test: as above; assay type: binding
T2 construct: gene VSIR; human VISTA protein
T2 sequence (Q9H7M9 33-194 limits assumed): T1 sequence (Q9H7M9 33-194)

Compound | pKd [1] | pKd [2]
O=C1c2c(O)c(=O)ccn2N([C@@H]2c3ccccc3SCc3c2ccc(F)c3F)[C@@H]2COCCN12 [BXA, baloxavir acid] | 6.68 | –
COC(=O)OCOc1c2n(ccc1=O)N([C@@H]1c3ccccc3SCc3c1ccc(F)c3F)[C@@H]1COCCN1C2=O [BXM, baloxavir marboxil] | – | 5.97
